B1: BDNF: brain-derived neurotrophic factor, from Roche (protein, UniProt P23560 19-247, looked up)
Neurotrophic factor BDNF …: APMKEANIRGQGGLAYPGVRTHGTLESVNGPKAGSRGLTSLADTFEHVIEELLDEDQKVRPNEENNKDADLYTSRVMLSSQVPLEPPLLFLLEEYKNYLDAANMSMRVRRHSDPARRGELSVCDSISEWVTAADKKTAVDMSGGTVTVLEKVPVSKGQLKQYFYETKCNPMGYTKEGCRGIDKRHWNSQCRTTQSYVRALTMDSKKRIGWRFIRIDTSCVCTLTIKRGR

Experiments:
TrkB = biological target: T1, TrkB (Rattus norvegicus, UniProt Q63604); experiment: TrkB phosphorylation in primary rat cortical neurons (immunoblotting); assay type: cell-based; conditions: primary rat cortical neurons; for TrkB activation (phosphorylation) compared to vehicle control: 500 nM compound, 20 min, immunoblotting
T1 construct: endogenous in cells; host or cells: primary rat cortical neurons (E17 embryos, 13 DIV)
Method: (§1) Primary rat cortical neurons from E17 embryos (13 DIV) were treated with 500 nM various chemicals for 15 min. The neuronal cell lysates were collected and resolved on 10% SDS-PAGE. Immunoblotting was conducted with various antibodies. p-TrkB Y817 antibody was employed at 1:20000-40000 dilution.
as §1, with “days in vitro (DIV))” for “DIV)”, “1:20,000-40,000 dilution (top panel). Equal amount of TrkB was loaded in all of the samples (middle panel). P-Akt 473 ELISA analysis with the neuronal lysates (bottom panel).” for “1:20000-40000 dilution.”
7,8-dihydroxyflavone (7,8-DHF) is a small molecular TrkB agonist. Preliminary structure-activity relationship study (SAR) supports that 7,8-catechol moiety is essential for the agonistic effect by 7,8-DHF. To explore the structure-activity relationship (SAR) in depth, the TrkB stimulatory activity was examined by numerous flavonoid derivatives. The numeric positions and each ring's nomenclature are designated (FIG. 1A). Compounds were dissolved in DMSO, then diluted into […] with 1× PBS (final vehicle contains 10% DMSO/PBS) (FIG. 1B). Primary rat cortical neurons were treated with 500 nM compounds for 20 min. The cell lysates were analyzed by immunoblotting. […] Downstream activation of the TrkB target Akt was tightly correlated with TrkB activation patterns by these derivatives (FIG. 1C, bottom panel). As observed, the hydroxy groups on B ring can regulate 7,8-DHF's stimulatory activity on TrkB receptor. As 2′-hydroxy, especially 3′-hydroxy group, elevates the agonistic effect, whereas 4′-hydroxy group diminishes its stimulatory effect.
To compare the TrkB activation by these synthetic compounds, primary cortical cultures were prepared. Cortical neurons were treated with 500 nM of various compounds for 20 min and cell lysates were collected. […] Replacing the H-bond acceptor O atom with hydrogen bond donor NH abolishes its stimulatory effect. […] On the other hand, 7,8-DHF provoked TrkB activation with the minimal concentration of 100 nM (FIG. 2B, right panels). To further study 4′-DMA-7,8-DHF's kinetics on TrkB activation, primary neurons were treated for various time points. 4′-DMA-7,8-DHF swiftly activated TrkB as soon as 5 minutes following treatment. […] To compare the stimulatory effect on TrkB receptor in mouse brains, 1 mg/kg of the synthesized derivatives were injected into C57BL/6J mice. TrkB activation was monitored at different time points.
Additional compounds are listed as designated from a to m (FIG. 6A). The compounds were dissolved in DMSO, then diluted into 500 μM with 1× PBS (final vehicle contains 10% DMSO/PBS). The primary rat cortical neurons (13 DIV) were treated with 500 nM compounds for 20 min. The cell lysates were analyzed by immunoblotting. […] Moreover, p-Akt ELISA was monitored to quantitatively analyze the agonistic activities of these compounds.

TrkB F616A = biological target: T2, TrkB F616A (Mus musculus, UniProt P15209, F616A); experiment: Forced swim test in TrkB F616A knockin mice with or without 1NMPP1; assay type: in vivo; conditions: TrkB F616A knockin mice, control groups without TrkB agonist
T2 construct: from tissue; host or cells: TrkB F616A knock-in mice (brain; whole animal in the forced swim test)
Method: Male TrkB knockin mice were given the regular drinking water or 1NMPP1 (25 μM) containing drinking water one day before we started to inject the drugs and sustained throughout the whole experiment. The indicated control (saline) and drugs were administrated for 5 days. […] None of the drugs produced a significant change in 1NMPP1 treated TrkB KI mice (n=6 to 7 mice) as compared to control.
TrkB F616A knockin mice were used to assess whether the behavior responses by 7,8-DHF and its derivative is mediated by TrkB receptor. Transgenic mice were subjected to saline or 1NMPP1 pretreatment, respectively.

T1 sequence (Q63604 32-821): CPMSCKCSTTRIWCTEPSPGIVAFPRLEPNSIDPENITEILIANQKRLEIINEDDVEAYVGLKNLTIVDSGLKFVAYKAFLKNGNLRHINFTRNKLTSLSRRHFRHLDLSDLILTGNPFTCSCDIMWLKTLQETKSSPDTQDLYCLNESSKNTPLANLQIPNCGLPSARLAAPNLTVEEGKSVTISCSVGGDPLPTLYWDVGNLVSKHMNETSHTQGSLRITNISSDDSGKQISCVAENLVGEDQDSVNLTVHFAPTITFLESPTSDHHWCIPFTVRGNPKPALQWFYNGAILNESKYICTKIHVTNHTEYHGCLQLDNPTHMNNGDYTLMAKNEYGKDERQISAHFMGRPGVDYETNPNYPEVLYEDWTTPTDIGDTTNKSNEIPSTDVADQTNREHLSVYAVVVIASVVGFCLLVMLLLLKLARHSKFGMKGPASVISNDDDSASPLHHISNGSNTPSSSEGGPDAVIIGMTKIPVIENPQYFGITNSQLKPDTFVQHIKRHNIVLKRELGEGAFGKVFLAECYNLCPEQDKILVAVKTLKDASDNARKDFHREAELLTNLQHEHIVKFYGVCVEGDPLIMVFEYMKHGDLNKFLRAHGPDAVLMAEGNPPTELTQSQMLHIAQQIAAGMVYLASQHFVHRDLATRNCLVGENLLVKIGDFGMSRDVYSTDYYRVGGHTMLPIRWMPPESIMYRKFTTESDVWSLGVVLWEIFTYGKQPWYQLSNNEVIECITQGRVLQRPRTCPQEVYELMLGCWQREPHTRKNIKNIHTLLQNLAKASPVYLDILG
T2 sequence (P15209 32-821 F616A): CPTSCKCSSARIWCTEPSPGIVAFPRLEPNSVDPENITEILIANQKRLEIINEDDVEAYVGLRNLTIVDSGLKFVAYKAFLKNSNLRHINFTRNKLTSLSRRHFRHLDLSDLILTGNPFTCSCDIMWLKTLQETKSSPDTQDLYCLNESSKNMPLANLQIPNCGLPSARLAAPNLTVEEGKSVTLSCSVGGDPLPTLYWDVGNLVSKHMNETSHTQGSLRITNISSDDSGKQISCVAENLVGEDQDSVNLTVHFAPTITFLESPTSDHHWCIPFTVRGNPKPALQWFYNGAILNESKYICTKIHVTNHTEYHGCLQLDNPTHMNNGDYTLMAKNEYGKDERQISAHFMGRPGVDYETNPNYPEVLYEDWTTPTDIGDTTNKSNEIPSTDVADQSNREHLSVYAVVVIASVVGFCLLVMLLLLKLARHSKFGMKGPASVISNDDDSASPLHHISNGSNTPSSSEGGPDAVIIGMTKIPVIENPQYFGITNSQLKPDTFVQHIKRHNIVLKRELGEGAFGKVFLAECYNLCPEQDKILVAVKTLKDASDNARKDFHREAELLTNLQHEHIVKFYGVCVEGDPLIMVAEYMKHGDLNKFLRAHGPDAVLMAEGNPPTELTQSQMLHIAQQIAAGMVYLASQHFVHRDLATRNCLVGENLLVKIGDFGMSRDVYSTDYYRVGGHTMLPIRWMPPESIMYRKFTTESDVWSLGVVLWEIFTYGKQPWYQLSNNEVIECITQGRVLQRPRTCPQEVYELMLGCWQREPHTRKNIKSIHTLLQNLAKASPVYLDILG

Row | Molecule | TrkB activation (phosphorylation) compared to vehicle control (TrkB) | other results
1 | O=c1cc(-c2cccc(O)c2)oc2c(O)c(O)ccc12 [7,8,3′-trihydroxyflavone] | even more robust stimulatory effect on TrkB phosphorylation than the lead | 
2 | O=c1cc(-c2ccccc2)oc2c(O)c(O)cc(O)c12 [5,7,8-trihydroxyflavone] | stimulated TrkB activation | 
3 | O=c1cc(-c2ccc(F)cc2)[nH]c2c(O)c(O)ccc12 [#2, 2-(4-fluorophenyl)-7,8-dihydroxyquinolin-4(1H)-one] | failed to provoke TrkB activation | 
4 | O=c1cc(-c2ccccc2)[nH]c2c(O)c(O)ccc12 [#3, 7,8-dihydroxy-2-phenylquinolin-4(1H)-one] | failed to provoke TrkB activation | 
5 | O=c1c(O)c(-c2ccccc2O)oc2c(O)c(O)ccc12 [3,7,8,2′-tetrahydroxyflavone] | stimulated TrkB activation | 
6 | O=c1c(O)c(-c2ccccc2)oc2cc(O)ccc12 [3,7-dihydroxyflavone] | stimulated TrkB activation | 
7 | O=c1cc(-c2ccccc2O)oc2c(O)c(O)ccc12 [7,8,2′-trihydroxyflavone] | stimulated TrkB activation | 
8 | COc1ccc2c(=O)cc(-c3ccccc3)oc2c1O [8-hydroxy-7-methoxyflavone, reference compound] | barely activated TrkB | 
9 | COc1ccc(-c2cc(=O)c3ccc(O)cc3o2)cc1 [7-hydroxy-4′methoxyflavone, reference compound] | barely activated TrkB | 
10 | O=c1cc(-c2ccc(O)cc2)oc2c(O)c(O)ccc12 [7,8,4′-trihydroxyflavone, reference compound] | barely activated TrkB | 
11 | CC(C)(C)n1nc(Cc2cccc3ccccc23)c2c(N)ncnc21 [1NMPP1] |  | immobility time, 1NMPP1 treated versus saline control group (TrkB F616A): No significant difference
12 | O=c1cc(-c2cccc(O)c2)oc2cc(O)ccc12 [7,3′-dihydroxyflavone] | even more robust stimulatory effect on TrkB phosphorylation than the lead | 
13 | O=c1cc(-c2cncnc2)oc2c(O)c(O)ccc12 [#4, 7,8-dihydroxy-2(pyrimidin-5-yl)-4H-chromen-4-one] | strongly activated TrkB | 
14 | O=c1c(O)c(-c2ccc(O)c(O)c2)oc2c(O)c(O)cc(O)c12 [3,5,7,8,3′,4′-hexahydroxylatedflavone, reference compound] | completely blocked TrkB phosphorylation | 
15 | B1 |  | TrkB activation (phosphorylation) (TrkB; BDNF 100 ng/ml): strongly activated TrkB

— patent US9504674B2, “TrkB agonists and methods of use” (EMORY UNIVERSITY, priority 2010, dated 2016)
